From patent publication US8163709B2, “TAK1-D mediated induction of cell death in human cancer cells by specific sequence short double-stranded RNAS” (Board of Regents of the University of Texas System, priority 2008, dated 2012) come the findings set out here.

One data set has as its system TLK1. Description: TLK1 post-transcriptional silencing in HeLa cells (Western blot). The following applies: 48 h after transfection. The class given is cell-based, human. The method, then: In order to test whether dsRNA molecules show the same cellular uptake and stability the efficiency of these molecules to post-transcriptionally silence the expression of TLK1 was determined as si6 as well as si5 siRNA are directed against the mRNA of this protein. […] As a loading control the unchanged expression levels of TAK1-A/B and 3-tubulin are shown in the two lower panels.
(Immunoblotting shows a protein as a band on a membrane.)

In a further data set the target is T1, TAK1-D (Homo sapiens, UniProt O43318).
T1 sequence (O43318 1-491 isoform O43318-4): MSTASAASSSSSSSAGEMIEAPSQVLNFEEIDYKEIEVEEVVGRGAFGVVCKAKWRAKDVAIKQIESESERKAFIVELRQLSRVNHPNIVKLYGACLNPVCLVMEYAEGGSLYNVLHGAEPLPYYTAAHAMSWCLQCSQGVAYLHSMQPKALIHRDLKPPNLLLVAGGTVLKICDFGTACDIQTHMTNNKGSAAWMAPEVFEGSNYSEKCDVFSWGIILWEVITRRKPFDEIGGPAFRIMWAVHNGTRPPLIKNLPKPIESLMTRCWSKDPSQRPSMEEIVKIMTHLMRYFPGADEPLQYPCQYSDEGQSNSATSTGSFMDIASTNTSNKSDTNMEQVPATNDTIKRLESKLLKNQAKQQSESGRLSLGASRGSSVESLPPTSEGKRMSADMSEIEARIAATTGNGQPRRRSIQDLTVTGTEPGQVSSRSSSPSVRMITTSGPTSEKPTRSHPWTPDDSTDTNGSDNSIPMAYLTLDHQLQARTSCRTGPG
The data set is described as follows: TAK1-D autophosphorylation on T184/T187 in H460 cells (Western blot, phospho-specific antibody). The class given is cell-based. Also on record: endogenous in cells; host or cells: NCI-H460. The following applies: for activating autophosphorylation (activation) of TAK1-D on T184 and T187: RNA transfected (20 nM), Western blot; for activating autophosphorylation of TAK1-D on T184 and T187: H460, ribotoxins 90 minutes (same concentrations). The method, then: In an effort to identify the MAPKKK responsible for the activation of the p38 MAP kinase and SAPK/JNK pathway, several of these kinases were screened for siRNA si5 mediated activation.
Immunoblot analysis. Western blotting was performed exactly as described previously (Kodym et al., 2008b). In addition to the primary antibodies previously mentioned (Kodym et al., 2008b) the following antibodies were used: S6 ribosomal protein (Cell Signaling #2217), DPM1 (Santa Cruz #sc-15836, Santa Cruz, Calif., USA), and Histone H3 (Cell Signaling #9715).

The next data set relates to p38 MAP kinase pathway. The data set is described as follows: Activation of the p38 MAP kinase pathway in H460 cells (Western blot). It counts as cell-based, human. An excerpt: Both siRNAs were directed against the mRNA of the same gene TLK1.
For a further data set, the system named is TAK1-A. The data set is described as follows: Autophosphorylation of the other (long) Tak1 splicing variants in H460 cells. The conditions noted are these: 10 ng/ml, 30 min. The class given is cell-based, human. From the text:
In contrast only the long form (TAK1-A) is able to activate the NFκB pathway through phosphorylation of IKKα/β.

The test system of the next data set is NF-κB. The data set is described as follows: NF-κB activation in H460 cells (EMSA, IKKα/β phosphorylation). It counts as cell-based, human. The following applies: 10 ng/ml, 30 min, listed as IL1β. As for the experimental part:
EMSA. Electrophoretic mobility shift assays for NFκB were performed as described previously (Kurland et al., 2001) using 3.5 μg of nuclear protein for each reaction.
FIG. 16B illustrates the effect of dominant-negative TAK1-D/K63W on dsRNA si5 induced cell death. […] As a slight growth inhibition of si5 transfected H460-K63W cells can be observed in FIG. 16B it is interesting to ask whether this is caused by an incomplete suppression of TAK1-D activity or by activation of other dsRNA-dependent stress pathways. To answer this question, the activation of the transcription factor NF-κB by dsRNA si5 was tested, as it well established that dsRNA triggered activation of PKR (Zamanian-Daryoush et al., 2000), TLR3 (Jiang et al., 2003), and RIG1/Mda-5 (Hiscott et al., 2006) leads to a downstream activation of NF-κB.

A further data set has as its system SAPK/JNK pathway. Description: Activation of the SAPK/JNK pathway in H460 cells (Western blot). It counts as cell-based, human. The conditions noted are these: H460, ribotoxins 90 minutes (same concentrations).
The subject of another data set is H460 cells. Description: Survival assay of H460 cells, Crystal Violet staining.

“Also recorded” adds a separate entry of the source. d = 2'-deoxy (DNA); r = 2'-OH (RNA)

Take “si5d: si5 with one U of the homopolymeric stretch changed to a C (SEQ ID NO:19) (GGCUUCUGACCUUUAUGAATT; siRNA; sugars from the 5' end r19 d2, backbone not given here)”: the “expression level of TLK1” value with TLK1 is “very significant reduction in the expression of TLK1”. Moreover, the “activating autophosphorylation (activation) of TAK1-D on T184 and T187” value with TAK1-D (H460 cells) is given as “significantly reduced the capacity of the molecule to activate TAK1-D”.

Regarding “OmeS: si5 sequence with several bases of the sense strand 2′-O-methyl modified (SEQ ID NO:25 and 26) (chain 1 GGCUUUUGACCUUUAUGAAUU; chain 2 TTCCGAAAACUGGAAAUACUU; 2'-O-methyl on sense strand bases, chemistry not fully specified; one strand is listed 3' to 5')”, in the data set on TLK1, the “expression level of TLK1” value was “very significant reduction in the expression of TLK1”.

As to “IL1: interleukin 1, positive control activating the long TAK1 variant via IL-1 receptor”, the “activation of the p38 MAP kinase pathway (MKK3/6)” value in the data set on p38 MAP kinase pathway (H460 cells, 10 ng/ml IL1) is “activating the p38 MAP kinase pathway (MKK3/6)”. In addition, the “autophosphorylation of the long splicing variant of Tak1” value with TAK1-A was “autophosphorylation of the large splicing variant of Tak1 (A and B)”; in the data set on TAK1-A (listed as IL1β), “activates exclusively the long form of TAK1 (TAK1-A)”. In addition, the “activation of the NFκB cascade (IKKα/β phosphorylation)” value with NF-κB is “activates the NFκB pathway”. In the data set with TAK1-D (H460 cells, 10 ng/ml IL-1), the “activation of TAK1-D” value was “does not activate TAK1-D”.

As to `C[C@@H]1C[C@@H]([C@H](O)CC2CC(=O)NC(=O)C2)C(=O)[C@@H](C)C1` [Cycloheximide], in the data set on p38 MAP kinase pathway, the “activating phosphorylations of p38 MAP kinase and its upstream kinases MKK3/6” value was “induced activating phosphorylations; also recorded: induce an activation of p38 MAP kinase and SAPK/JNK”. For the same compound, the “activating phosphorylations of SAPK/JNK and its upstream kinase MKK4” value with SAPK/JNK pathway was “induced activating phosphorylations”; in the data set with SAPK/JNK pathway (listed as cycloheximide), “induce an activation of p38 MAP kinase and SAPK/JNK”. In addition, on TAK1-D, the “activating autophosphorylation of TAK1-D on T184 and T187” value is reported as “No such activation was detectable”.

For `COc1ccc(C[C@H](N)C(=O)N[C@H]2[C@@H](O)[C@H](n3cnc4c(N(C)C)ncnc43)O[C@@H]2CO)cc1` [Puromycin, reference compound], the “activating phosphorylations of p38 MAP kinase and its upstream kinases MKK3/6” value with p38 MAP kinase pathway is reported as “induced activating phosphorylations”. Moreover, the “activating phosphorylations of SAPK/JNK and its upstream kinase MKK4” value in the data set with SAPK/JNK pathway is reported as “induced activating phosphorylations”. Moreover, the “activating autophosphorylation of TAK1-D on T184 and T187” value is on record as “led to an activating autophosphorylation of TAK1-D” on TAK1-D and “induce an activating TAK1-D phosphorylation” on TAK1-D (listed as puromycin).

With “si5l: si5 extended by adding 2 ribonucleotides (SEQ ID NO:18) (GGCUUUUGACCUGUUUAUGAATT; siRNA; sugars from the 5' end r21 d2, backbone not given here)”, in the data set on p38 MAP kinase pathway (H460 cells, 20 nM RNA, 2-6 h), the “activation of the p38 MAP kinase pathway (phosphorylation of MKK3/6, p38 MAPK)” value is “small activation of Tak1-D and p38 MAPK could still be observed”. Besides, the “expression level of TLK1” value in the data set with TLK1 was “lack of post-transcriptional silencing of TLK1”. The “activating autophosphorylation (activation) of TAK1-D on T184 and T187” value in the data set with TAK1-D (H460 cells) is reported as “significantly reduced its activity”.

Consider “si6: control 21-mer siRNA against TLK1 mRNA: GGGUGGAAAUGGCUCAAGUtt (SEQ ID NO: 4) / gtCCCACCUUUACCGAGUUCA (SEQ ID NO: 5) (sense GGGUGGAAAUGGCUCAAGUTT; antisense GTCCCACCUUUACCGAGUUCA; Artificial primer) [reference compound]”, for which, in the data set on H460 cells (H460, concentration range tested (up to 20 nM), 48 h), the “cytotoxicity, Crystal Violet” value is “does not show any significant cytotoxicity”.

Consider `CN[C@@H]1[C@@H](O)[C@@H](O[C@@H]2[C@@H](O)[C@H](O[C@H]3O[C@H]([C@@H](C)O)[C@@H](O)[C@H](O)[C@H]3N)[C@@H](N)C[C@H]2N)OC[C@]1(C)O` [G418], for which, in the data set on p38 MAP kinase pathway, the “activating phosphorylations of p38 MAP kinase and its upstream kinases MKK3/6” value is on record as “exception”. The “activating phosphorylations of SAPK/JNK and its upstream kinase MKK4” value in the data set with SAPK/JNK pathway was “exception”.

For the compound “AU: dsRNA with alternating A and U bases (control, SEQ ID NO:21 and 22) (chain 1 AUAUAUAUAUAUAUAUAUATT; chain 2 TTUAUAUAUAUAUAUAUAUAU; chemistry not given here) [reference compound]”, in the data set with TAK1-D (H460 cells), the “activating autophosphorylation (activation) of TAK1-D on T184 and T187” value is recorded as “does not activate the TAK1-D pathway”.

On to “si5OMeA: si5 sequence with U and G 2′-O-methylated in the antisense strand only (SEQ ID NO:27 and 28) (chain 1 GGCUUUUGACCUUUAUGAATT; chain 2 UUCCGAAAACUGGAAAUACUU; 2'-O-methyl U and G in antisense strand, chemistry not fully specified; one strand is listed 3' to 5')”, for which the “expression level of TLK1” value in the data set with TLK1 is reported as “very significant reduction in the expression of TLK1”.

For the compound “OmeD: si5 sequence with 2′-O-methyl on both strands (SEQ ID NO:23 and 24) (chain 1 GGCUUUUGACCUUUAUGAAUU; chain 2 UUCCGAAAACUGGAAAUACUU; siRNA; 2'-O-methyl at dot-marked bases on both strands, pattern not given here; one strand is listed 3' to 5')”, in the data set on TLK1, the “expression level of TLK1” value is listed as “very significant reduction in the expression of TLK1”. For the same compound, the “activating autophosphorylation (activation) of TAK1-D on T184 and T187” value with TAK1-D (H460 cells) is “no activation of Tak1-D could be detected”.

With “si5s: si5 with two ribonucleotides in the middle of the molecule deleted (SEQ ID NO:17) (GGCUUUUGACUUAUGAATT; siRNA; sugars from the 5' end r17 d2, backbone not given here)”, the “expression level of TLK1” value in the data set on TLK1 is reported as “lack of post-transcriptional silencing of TLK1”. Moreover, the “activating autophosphorylation (activation) of TAK1-D on T184 and T187” value with TAK1-D (H460 cells) is on record as “completely abolished its ability to activate Tak1-D”.

With “shRNA: short hairpin RNA containing the si5 sequence, in vitro transcribed with T7 RNA polymerase (SEQ ID NO:20) (GGCUUUUGACCUUUAUGAAUUAAUUCAUAAAGGUCAAAAGCC; siRNA; RNA, phosphodiester; hairpin)”, in the data set with H460 cells (H460, 48 hours after transfection, shRNA experiment), the “cell death, crystal violet” value was “led to cell death”.

Consider `CN(CC[C@H](N)CC(=O)N[C@H]1C=C[C@H](n2ccc(N)nc2=O)O[C@@H]1C(=O)O)C(=N)N` [Blasticidin S], for which the “activating phosphorylations of p38 MAP kinase and its upstream kinases MKK3/6” value in the data set with p38 MAP kinase pathway was “induced activating phosphorylations; also recorded: induce an activation of p38 MAP kinase and SAPK/JNK”. For the same compound, the “activating phosphorylations of SAPK/JNK and its upstream kinase MKK4” value in the data set on SAPK/JNK pathway was “induced activating phosphorylations”; in the data set with SAPK/JNK pathway (listed as blasticidin S), “induce an activation of p38 MAP kinase and SAPK/JNK”. The “activating autophosphorylation of TAK1-D on T184 and T187” value at TAK1-D is “No such activation was detectable”.
